Usually Kd stands for the constant that tells how readily two partners part at equilibrium. A high value points to lower affinity.

The text below walks through data of publication PMC7738869, “A novel STAT3 inhibitor W2014-S regresses human non-small cell lung cancer xenografts and sensitizes EGFR-TKI acquired resistance” (Theranostics, 2021).

The structures appear in SMILES notation.

The subject of assay [1] is PC-9/GR xenografts. The settings on record: gefitinib intragastric 20 mg/kg per day, W2014-S 10 mg/kg/day, 21 d.
Protocol: For PDX model, the PDX sample was from The Jackson Laboratory. […] The tumor sample were cut into approximately 1 mm^3, and the tissue was pushed under skin of mice by TROCHAR. When tumor volumes reached approximately 100 mm^3, mice were randomly distributed into groups of 7 mice. […] Tumor size was measured every two days by vernier caliper. The average tumor volume in each group was calculated based on the equation for a prolate spheroid (tumor volume = (short-diameter)^2 × large-diameter × π / 6 ) and expressed in mm^3.
The subject of assay [2] is PC-9/GR cells. In words: Cell apoptosis assay (Annexin V-FITC/PI flow cytometry), PC-9/GR. The format is cell-based, human. The settings on record: gefitinib 2 μM and/or W2014-S 1 μM, 72 h. As for the experimental part: Briefly, aliquots of 2 × 10^5 cells were seeded into 6-well plates and incubated for 24 h at 37 °C. […] After trypsinization and gently washing cells once with medium, the cells were washed twice with cold PBS. The precipitation was resuspended by 400 μL of 1 × binding buffer, and then resuspended cells were transferred into new 1.5 mL EP tubes. Then 3 μL of Annexin V-FITC and 5 μL of propidium iodide were added to the resuspended cells with further incubation at room temperature for 15 min in the dark. The analysis was done on Guava easyCyte (USA) and FlowJo 7.6 software.

Assay [3] deals with PC-9 cells. In words: Cell viability assay (CCK-8), PC-9. The format is cell-based. The settings on record: Homo sapiens, PC-9, 72 h, read-out: IC50 cell proliferation. Here is the method:
(§1) Cell proliferation was measured using the Cell Counting Kit-8 (CCK-8, B34304, Bimake, USA). A549 (2 × 10^3/100 μL/well), PC-9 (3 × 10^3/100 μL/well) or PC-9/GR cells (3 × 10^3/100 μL/well) were plated into each well of 96-well plates (Costar, USA). […] Then, 10 μL of CCK-8 was added to each well, and cells were incubated for 1-4 h until the color of untreated controls turned to orange. The absorbance (A) was measured by a microplate reader (FLUOstar Omega-ACU, USA) at test and reference wavelengths of 450 nm. The percentage of growth was calculated as Cell viability (%) = [A (Compound +) - A (Blank) ] / [A (Compound -) - A (Blank) ] × 100%. Cell viability meant proliferation of cells. Each experiment was done at least in triplicate, and thrice independently.

The subject of assay [4] is A549 cells. In words: Wound healing assay for migration. The format is cell-based, human. The settings on record: 48 h. As for the experimental part:
The motility of cells was measured by wound healing assay. Cells were seeded into 6-well plates and cultured to 90-100% confluent after 24 h. Wounds were made in each well of 6-well plates using pipette tips. […] The migration of cells was visualized under a microscope (4 ×, Nikon, Japan) and photographed in different time points (0 and 48 h).

The target in assay [5] is full-length wild-type STAT3 (Homo sapiens, UniProt P40763). In words: Surface plasmon resonance analysis of binding to STAT3. The settings on record: SPR. Here is the method: Biacore 8K and Biacore Insight Evaluation software were used to analyze the interaction between the agents and the protein full-length wild-type STAT3 to detect the binding affinity. Purified STAT3 (100 μg/mL) without Tris and glycerin was injected onto the CM5 Chip (GE, USA) for immobilization. Several concentrations of W2014-S or W2014-R dissolved in running buffer (1×PBS with filtration, 0.01% DMSO) were flown over the chip to produce response signals. The kinetics and affinities were calculated by the Biacore Insight Evolution software, and the results were determined as the binding affinity (KD).
Chain of full-length wild-type STAT3 (P40763 whole entry): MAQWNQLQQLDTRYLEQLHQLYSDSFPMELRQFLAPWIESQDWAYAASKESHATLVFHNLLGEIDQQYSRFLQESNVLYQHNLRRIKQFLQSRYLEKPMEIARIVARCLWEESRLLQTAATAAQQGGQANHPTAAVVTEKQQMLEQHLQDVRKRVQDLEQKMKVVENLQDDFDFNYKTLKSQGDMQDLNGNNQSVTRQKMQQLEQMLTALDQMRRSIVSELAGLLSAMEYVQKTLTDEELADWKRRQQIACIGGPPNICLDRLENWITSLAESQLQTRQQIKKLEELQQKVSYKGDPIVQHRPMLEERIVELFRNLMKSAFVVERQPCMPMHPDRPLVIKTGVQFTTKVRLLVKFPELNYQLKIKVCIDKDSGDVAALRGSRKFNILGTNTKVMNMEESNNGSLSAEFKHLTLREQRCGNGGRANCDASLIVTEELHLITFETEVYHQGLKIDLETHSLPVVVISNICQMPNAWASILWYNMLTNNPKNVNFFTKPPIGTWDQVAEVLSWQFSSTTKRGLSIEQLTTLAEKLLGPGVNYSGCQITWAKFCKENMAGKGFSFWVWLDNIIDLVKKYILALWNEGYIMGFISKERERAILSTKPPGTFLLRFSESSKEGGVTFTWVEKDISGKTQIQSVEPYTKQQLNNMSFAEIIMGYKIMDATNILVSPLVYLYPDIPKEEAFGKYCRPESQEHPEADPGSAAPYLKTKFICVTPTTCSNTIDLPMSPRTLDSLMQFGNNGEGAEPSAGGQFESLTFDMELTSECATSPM
Background: SPR reads the build-up and loss of mass on a sensor chip optically.

Assay [6] relates to A549 cells. As to the kind of experiment: Colony formation assay, A549. The format is cell-based, human. The settings on record: A549, as low as 0.3 μM.
Assay [7] has as its system PC-9 cells. As to the kind of experiment: Colony formation assay, PC-9. The settings on record: PC-9, as low as 0.3 μM. The format is cell-based, human.
Assay [8] has as its system A549 cells. In words: Cell viability assay (CCK-8), A549. The settings on record: Homo sapiens, A549, 72 h, read-out: IC50 cell proliferation. The format is cell-based. As for the experimental part:
as §1

Assay [9] deals with A549 cells. As to the kind of experiment: Transwell cell invasion assay, A549. The settings on record: A549, 1 μM.
Protocol: Transwell invasion assays were performed as previously reported [37] using Transwell chamber (Costar, USA). […] Data from triplicates experiments were pooled and plotted as shown.

Take `COc1cc2ncnc(Nc3ccc(F)c(Cl)c3)c2cc1OCCCN1CCOCC1` [Gefitinib, reference compound]: the xenograft tumor growth result in assay [1] is “slight inhibitory effect”. In addition, in assay [2], the Q1 is listed as 0.103%, the Q2 was 4.61%, the Q3 amounted to 3.05% and the Q4 is 92.2%.

Take `C[C@@H](Oc1ccc(-c2nc3nc(C4=CCN(C(=O)OC(C)(C)C)CC4)ccc3[nH]2)cc1)c1ccccc1` [W2014-R]: the results for the IC50 in assay [3] and in assay [8] were 2.66 µM and 2.42 µM, respectively. Further, the cell migration result in [4] is on record as “slightly inhibition”. The affinity in assay [5], expressed as Kd, was 3.39 µM. Further, the colony formation result in assay [6] and in assay [7] was “significantly suppressed the colony formation” throughout. The cell invasion result in assay [9] is reported as “not”.
